Experiments:
[1] = DPPH radical scavenging assay; details: 0.2 mM DPPH in absolute ethanol, dark, room temperature, 30 minutes, absorbance at 517 nm; read-out: IC50 value against DPPH radicals
Method: DPPH is a stable free radical. When a free radical scavenger is present, light absorption of DPPH will be reduced when the single electron is scavenged, which allows to evaluate free radical scavenging ability of the substance and accordingly determine antioxidant ability thereof. The DPPH radical scavenging ability of the compound 2,2′,4,4′-tetrahydroxy-3-(2″-hydroxy-3″-methylbutyl-3″-alkenyl)chalcone was measured through the DPPH radical scavenging assay, so as to evaluate the antioxidant ability of the compound. The assay comprised the following steps:
1,1-Diphenyl-2-picrylhydrazyl (DPPH) was dissolved in absolute ethanol to obtain a solution with a concentration of 0.2 mM. The compound 2,2′,4,4′-tetrahydroxy-3-(2″-hydroxy-3″-methylbutyl-3″-alkenyl)chalcone was dissolved in absolute ethanol. 80 μL of the ethanol solution of 2,2′,4,4′-tetrahydroxy-3-(2″-hydroxy-3″-methylbutyl-3″-alkenyl)chalcone and 160 μL of the 0.2 mM DPPH ethanol solution were mixed and the mixture was placed in dark at room temperature for 30 minutes. Then, light absorbance at 517 nm was measured using a microplate reader (SpectraMax 190, Molecular Devices, USA).

[2] = Solubility in methanol; assay type: physicochemical

IC50 [1]: 21.6 µM | solubility in methanol [2]: easily soluble in methanol
SMILES: C=C(C)C(O)Cc1c(O)ccc(C(=O)/C=C/c2ccc(O)cc2O)c1O (centres unmarked) [compound 1, 2,2′,4,4′-tetrahydroxy-3-(2″-hydroxy-3″-methylbutyl-3″-alkenyl)chalcone]

From US11186533B2, “Chalcone compound and preparation method thereof” (SOUTH CHINA BOTANICAL GARDEN, CHINESE ACADEMY OF SCIENCES, priority 2018, dated 2021)
